{"source": "paper PMC7059139", "about": "“Inhibiting MARSs reduces hyperhomocysteinemia‐associated neural tube and congenital heart defects” (EMBO Molecular Medicine, 2020)", "key": {"[1]": {"target": "T1, MARS2 (Mus musculus, UniProt Q499X9)", "T1 construct": "Flag-tagged, cDNA NM_175439.3", "T1 sequence (Q499X9 47-586)": "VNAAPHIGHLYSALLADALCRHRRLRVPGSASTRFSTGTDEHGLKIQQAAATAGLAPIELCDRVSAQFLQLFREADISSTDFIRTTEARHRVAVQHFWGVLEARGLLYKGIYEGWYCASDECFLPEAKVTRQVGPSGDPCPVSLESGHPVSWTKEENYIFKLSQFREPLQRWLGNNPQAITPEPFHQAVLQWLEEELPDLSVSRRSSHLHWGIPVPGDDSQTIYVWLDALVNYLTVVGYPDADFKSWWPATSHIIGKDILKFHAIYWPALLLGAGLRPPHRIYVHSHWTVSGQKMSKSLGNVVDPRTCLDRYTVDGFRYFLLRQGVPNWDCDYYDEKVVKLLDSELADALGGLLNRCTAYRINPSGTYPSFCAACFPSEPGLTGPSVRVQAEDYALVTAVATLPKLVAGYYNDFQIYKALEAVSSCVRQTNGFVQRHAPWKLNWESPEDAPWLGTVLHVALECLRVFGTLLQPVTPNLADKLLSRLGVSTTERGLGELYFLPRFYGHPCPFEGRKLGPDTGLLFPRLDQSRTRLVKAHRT", "experiment": "in vitro HTL production from Hcy ([…]), thin layer chromatography", "type": "biochemical"}, "[2]": {"target": "T2, MARS (methionyl-tRNA synthetase) (Homo sapiens, UniProt P56192)", "T2 construct": "gene MARS1; Flag-tagged, cDNA NM_004990.3", "T2 sequence (P56192 1-900)": "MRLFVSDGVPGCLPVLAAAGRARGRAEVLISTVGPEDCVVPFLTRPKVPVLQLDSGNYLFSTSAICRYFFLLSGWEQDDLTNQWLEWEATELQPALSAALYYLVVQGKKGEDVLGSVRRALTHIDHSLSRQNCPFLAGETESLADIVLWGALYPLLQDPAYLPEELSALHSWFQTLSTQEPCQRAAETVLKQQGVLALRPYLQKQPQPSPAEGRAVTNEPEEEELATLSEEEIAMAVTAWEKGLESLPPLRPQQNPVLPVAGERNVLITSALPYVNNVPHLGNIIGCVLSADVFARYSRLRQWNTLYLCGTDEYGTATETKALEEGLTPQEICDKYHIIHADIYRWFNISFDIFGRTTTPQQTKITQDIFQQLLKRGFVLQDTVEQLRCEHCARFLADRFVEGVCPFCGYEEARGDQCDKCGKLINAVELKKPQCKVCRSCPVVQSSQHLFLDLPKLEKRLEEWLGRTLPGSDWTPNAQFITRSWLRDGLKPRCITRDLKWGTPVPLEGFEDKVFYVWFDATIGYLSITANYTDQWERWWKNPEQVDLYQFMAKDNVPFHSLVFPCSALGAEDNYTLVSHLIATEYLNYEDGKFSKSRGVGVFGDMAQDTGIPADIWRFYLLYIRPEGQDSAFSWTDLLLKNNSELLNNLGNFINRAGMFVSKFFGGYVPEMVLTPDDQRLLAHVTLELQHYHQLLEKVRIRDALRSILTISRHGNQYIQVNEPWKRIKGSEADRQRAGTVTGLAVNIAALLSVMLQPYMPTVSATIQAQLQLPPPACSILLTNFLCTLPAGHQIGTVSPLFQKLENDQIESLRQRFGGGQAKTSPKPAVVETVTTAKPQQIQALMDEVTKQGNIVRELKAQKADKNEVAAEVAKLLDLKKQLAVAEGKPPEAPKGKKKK", "experiment": "in vitro HTL production from Hcy ([…]), thin layer chromatography", "type": "biochemical"}}, "data": [{"smiles": "NC(=O)CSCCC(N)C(=O)O", "note": "(racemic) [compound 5, AHT]", "values": [{"measurement": "IC50", "setting": "[1]", "value": 40, "unit": "µM"}, {"measurement": "IC50", "setting": "[2]", "value": 36, "unit": "µM"}]}]}
